According to the NIST ThermoML archive (doi:10.1021/je700699u):

Assay: cn = amount concentration of the nth substance listed, in mol/dm3
Conditions: 101 kPa, Liquid

NCCC(=O)[O-].[K+] [potassium Salt of B-alanine] + O
Conditions	mass density, 298.15 K [kg/m3]	mass density, 303.15 K [kg/m3]	mass density, 313.15 K [kg/m3]	mass density, 323.15 K [kg/m3]	mass density, 333.15 K [kg/m3]	viscosity, 298.15 K [mPa·s]	viscosity, 303.15 K [mPa·s]	viscosity, 313.15 K [mPa·s]	viscosity, 323.15 K [mPa·s]	viscosity, 333.15 K [mPa·s]
c1 = 0.496	1026	1024	1020	1017	1011	1.05	0.944	0.762	0.638	0.546
c1 = 1.003	1053	1053	1048	1043	1038	1.23	1.097	0.892	0.744	0.634
c1 = 1.492	1079	1078	1074	1070	1065	1.453	1.293	1.049	0.871	0.737
c1 = 2.019	1107	1106	1100	1096	1090	1.759	1.548	1.25	1.027	0.866
c1 = 2.492	1133	1131	1126	1121	1116	2.131	1.881	1.497	1.223	1.022
c1 = 2.964	1157	1155	1150	1145	1140	2.609	2.293	1.808	1.464	1.217
c1 = 3.417	1181	1179	1174	1169	1162	3.245	2.832	2.209	1.77	1.459

CNCC(=O)[O-].[K+] [potassium Salt of sarcosine] + O
Conditions	mass density, 298.15 K [kg/m3]	mass density, 303.15 K [kg/m3]	mass density, 313.15 K [kg/m3]	mass density, 323.15 K [kg/m3]	mass density, 333.15 K [kg/m3]	viscosity, 298.15 K [mPa·s]	viscosity, 303.15 K [mPa·s]	viscosity, 313.15 K [mPa·s]	viscosity, 323.15 K [mPa·s]	viscosity, 333.15 K [mPa·s]
c1 = 0.51	1024	1023	1019	1015	1010	1.018	0.913	0.748	0.627	0.538
c1 = 1.01	1051	1049	1045	1041	1036	–	–	–	–	–
c1 = 1.019	–	–	–	–	–	1.185	1.06	0.876	0.759	0.614
c1 = 1.534	1077	1074	1070	1065	1060	1.408	1.252	1.005	0.833	0.703
c1 = 2.019	1103	1100	1096	1091	1085	1.663	1.466	1.18	0.968	0.811
c1 = 2.445	1124	1121	1117	1111	1106	1.959	1.707	1.356	1.098	0.919
c1 = 2.987	1150	1148	1143	1138	1132	2.493	2.185	1.721	1.395	1.115
